The METLIN SMRT retention time set (Domingo-Almenara et al. 2019)

Experiment: gradient 5% acetonitrile 3 min, to 50% in 2 min, to 85% in 15 min, held 3 min, 100 µL/min
Details: column: Zorbax Extend-C18 2.1 x 50 mm; eluents: water / acetonitrile, 0.1% formic acid
Method in brief: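 Retention times of pure standards were taken from adduct peaks that were selected by computer and manually inspected. Over 3 months, mixtures of ~100 molecules were run by HPLC–quadrupole time-of-flight mass spectrometry in positive and negative ionization mode. The Zorbax Extend-C18 column (2.1 × 50 mm, 1.8 μm) ran at 100 μL/min in water and acetonitrile, each containing 0.1% formic acid, with 40 μL dead volume and 900 μL dwell volume.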

Compound | RP-LC retention time [s]
O=C(c1ccoc1)N1[C@H]2CC[C@@H]1c1cnc(-c3ccc(F)cc3)nc1C2 | 882
Cc1ccc(Cn2c(CN3CCC(C(=O)N4CCCC4)CC3)cc3ccccc32)cc1 | 750
Cc1noc2nc(CCC(=O)NCCCN3CCc4ccccc4C3)nc(N3CCC(C)CC3)c12 | 703
CCC1CN(C(=O)N2CCC(C(=O)NCCCOC)CC2)c2cc(C)ccc2O1 (centres undefined) | 757
COc1ccc2c(c1)C1(CCN(C(=O)Nc3cccc(C)c3)C1)C(=O)N2 (centres undefined) | 730
CN(C)C(=O)c1ccc2c(c1)N(CC(=O)Nc1ccccc1Cl)C(=O)CS2 | 705
COc1ccc(NC(=O)CN2CCc3[nH]c4c(C)c(C)ccc4c(=O)c3C2)cc1Cl | 650
CC(C)c1ccc(NC(=O)Cn2nc(N3CCOCC3)c3ccccc3c2=O)cc1 | 905
CCn1cc(C)c(C(=O)O)c1CC(=O)NCc1cccs1 | 733
COc1nn(C)cc1C(=O)N1CCCC(COCc2ccccc2)C1 (centres undefined) | 742
O=C(NCc1ccco1)c1ccc(-n2nnc3cccnc32)cc1Cl | 793
O=C(CN1C(=O)C(C(=O)N2CCCC2)Sc2ccccc21)NCc1ccc(Cl)cc1 (centres undefined) | 948
COCCOc1ccc(N2CCN(CCn3ncc4c3nc(N)n3nc(-c5ccco5)nc43)CC2)cc1 | 665
Cc1noc(C)c1CNC(=O)CCCc1ccccc1 | 760
CSc1c(C)c(SC)n2ccncc12 | 725
Cc1cccc(-c2nnc(-c3ccc(Cl)c(S(=O)(=O)N4CCCCC4)c3)o2)c1 | 1250
O=C(NC1CCCCC1)N1CCC(c2noc(-c3cccnc3)n2)C1 (centres undefined) | 749
CCOc1ccc(CC(=O)N2CCN(c3cc(-c4cccs4)[nH]n3)CC2)cc1 | 809
O=C(Nc1ccc(N2CCN(Cc3ccc(F)cc3)C2=O)nc1)c1cccs1 | 570
CCCCn1cc(S(=O)(=O)NCc2ccccn2)c2cccnc21 | 671
Cc1cccc(C)c1OCC(O)Cn1c(C2CC(=O)N(Cc3ccccc3)C2)nc2ccccc21 (centres undefined) | 834
CCOc1ccccc1NC(=O)c1cnc(-c2ccccc2)nc1-c1ccncc1 | 978
COc1ccc(S(=O)(=O)N2CCCC(C(=O)NC3CC3)C2)cc1OC (centres undefined) | 702

Compound | RP-LC retention time [s]
Cc1nn(C)c2nc(OC(C)C(=O)NCCc3ccc(Cl)cc3)cc(C(F)(F)F)c12 (centres undefined) | 1080
Cc1cc(C)cc(NC(=O)N2CCC(n3cnc4cc(F)ccc4c3=O)CC2)c1 | 846
Cc1ccc(C(=O)NCc2noc(C3CCCC3)n2)cc1 | 842
CCC(c1cccs1)N1C(=O)[C@H]2CN(Cc3cccnc3)C[C@H]2C1=O (some centres undefined) | 653
COc1ccc(S(=O)(=O)NCCS(=O)(=O)N2CCN(c3ccccc3)CC2)cc1 | 849
CC(C)(C)C(=O)Nc1cnc(N2CCCCCC2)nc1 | 817
O=C1CN(Cc2ccco2)C2CS(=O)(=O)CC2N1c1ccc(Cl)cc1 (centres undefined) | 714
COc1ccccc1NS(=O)(=O)c1ccc2c(c1)C(=O)N(C)c1ncccc1O2 | 885
CCN(CC)CCNC(=O)c1ccc(NCN2C(=O)NC(c3ccccc3)(c3ccccc3)C2=O)cc1 | 726
CN(Cc1ccccc1)C(=O)c1cc2cccnc2n(Cc2ccccc2)c1=O | 950
CCn1nccc1-c1cccc(-c2noc(-c3ccc(CS(=O)(=O)c4ccccc4)cc3)n2)c1 | 1160
O=C(NCCc1n[nH]c(Cc2cccc(F)c2)n1)c1ccc2c(c1)OCO2 | 673
CCOc1ccccc1NC(=O)C1CCCN1S(=O)(=O)c1cc2c(cc1Cl)NC(=O)CO2 (centres undefined) | 880
COc1ccc(CNC(=O)C2CCN(c3ccc(SCc4ccccc4)nn3)CC2)cc1OC | 704
CCCCn1cc(S(=O)(=O)N2CCN(c3ccccc3C)CC2)c2cccnc21 | 1280
Cc1ccc(N2CC(NC(=O)C(=O)c3c[nH]c4ccccc34)CC2=O)cc1 (centres undefined) | 823
Cc1cc(C)n2c(Nc3c(C)cccc3C)c(-c3cccc(Cl)c3)nc2n1 | 902
Cc1ccc(-c2nc3cc(C)ccn3c2Nc2ccccc2C)cc1 | 770
CCn1c(C(=O)NCCCN2CCCC(C)C2)cc2c(-c3cccs3)nn(-c3ccccc3)c21 (centres undefined) | 802
COCCNC(=O)c1cc2c(n(-c3ccc(C(F)(F)F)cc3)c1=O)CCCC2=O | 786
CC1CCN(Cc2nnc(-c3ccccc3)o2)CC1 | 601
CN(C)C(=O)C1CCN(c2nc3ccc(-c4ccc(F)cc4)nc3s2)CC1 | 912
Cc1c(N2CCC(C(=O)NCC3CCCO3)CC2)c(=O)n(C)c(=O)n1-c1ccccc1 (centres undefined) | 691

Compound | RP-LC retention time [s]
CCCS(=O)(=O)N1CCC(Oc2nccnc2N2CCOCC2)C1 (centres undefined) | 761
CC(C)(C)c1nnc(NC(=O)C2CC(=O)N(CCc3c[nH]c4ccc(F)cc34)C2)s1 (centres undefined) | 782
CS(=O)(=O)N1CCC(C(=O)Nc2cc(N3CCOCC3)ncn2)CC1 | 563
O=C(OC1C[C@@H]2CC3C[C@@H](C1)N2CC3=O)c1c[nH]c2ccccc12 (some centres undefined) | 638
CCOC(=O)c1nc(Nc2ccc(C)cc2C)c2ccccc2n1 | 831
O=C(Nc1ccc(F)cc1Cl)C1CCc2nc(N3CCOCC3)ncc2C1 (centres undefined) | 793
CC(NC(=O)C1CCN(c2cnc(N3CCCC3)nc2)CC1)c1ccc(F)cc1 (centres undefined) | 699
COC(=O)c1cc(C)nc2c1c(=O)n(Cc1cccc(F)c1)c(=O)n2Cc1ccco1 | 1100
Cc1[nH]c2ccc(-c3nnc(SCC(=O)NC(C)c4nc5ccccc5[nH]4)o3)cc2c1C (centres undefined) | 667
CCNc1cc(N2CCC(CCC(=O)NCc3ccc(C)cc3)CC2)ncn1 | 676
Cc1nc(-c2ccc3c(c2)CCN3C(=O)Cc2ccsc2)cs1 | 980
CN(C(=O)C1CCCN(c2ncnc3c2nc2n3CCCCC2)C1)c1ccccc1F (centres undefined) | 785
Cc1cc(C)n(CCC(=O)NCC2Cn3cccc3C(=O)N2C)n1 (centres undefined) | 593
CCOC(=O)c1nc(NCCCN2CCN(c3cc(Cl)ccc3C)CC2)c2ccccc2n1 | 731
CN1c2ccc(Cl)cc2C(=O)NC12CCN(C(=O)c1ccccc1)CC2 | 793
COc1ccc(N2CCCn3c2nc2c3c(=O)n(C)c(=O)n2C)cc1 | 568
COc1cc(Cl)ccc1C(=O)Nc1ccc2c(c1)Sc1ncccc1C(=O)N2C | 915
CC(Cc1ccco1)NC(=O)Cn1cccc1-c1nnc(-c2ccccc2)o1 (centres undefined) | 898
COc1ccc(S(=O)(=O)N2CCCC2)cc1C(=O)Nc1cccc2cnccc12 | 598
CCc1ccc(NC(=O)N2CCC(N3CCN(Cc4ccccc4)C(=O)C3=O)CC2)cc1 | 789
COc1ccc(OCC(=O)Nc2ccc3c(c2)N(C(=O)C(C)C)CCC3)cc1 | 897
O=C(CN1C(=O)CC(c2ccccc2)S(=O)(=O)c2ccccc21)NCCc1ccccc1 (centres undefined) | 855
COc1cccc(OC)c1C(=O)N1CCCC1c1cc(C)on1 (centres undefined) | 679

Compound | RP-LC retention time [s]
CC(C)CNC(=O)c1nnn2c1COC(c1ccc(Br)cc1)C2 (centres undefined) | 973
Cc1ccc2oc(N3CCN(C(=O)Cc4ccccc4)CC3)nc2n1 | 620
C=CCN(Cc1nc(-c2cccc(C)c2)no1)C(=O)Nc1cccc(C)c1 | 1090
CC1CCN(C(=O)C2=NN(Cc3ccccc3)c3ccccc3S2(=O)=O)CC1 | 1010
CCCn1cc(CCNC(=O)c2ccc(C)cc2C)c2cccnc21 | 799
O=C(Nc1ccccc1C(F)(F)F)N1CCCC1c1nncn1-c1ccccc1 (centres undefined) | 736
Cc1cc(C)c(C)c(S(=O)(=O)NCC(=O)NCc2ccco2)c1C | 573
O=C(C1CCCO1)N1CCN(c2nc3cccnc3n(Cc3ccccc3)c2=O)CC1 (centres undefined) | 856
O=C(NCc1ccc(F)cc1F)C1CCc2nc(N3CCOCC3)ncc2C1 (centres undefined) | 682
O=C(Nc1cnn(-c2ncc(N3CCSCC3)cn2)c1)NC1CCCC1 | 848
CCCCN(CC)C(=O)c1cc(NC(=O)CC(C)C)cnc1N1CCNCC1 | 632
CCC(=O)N1CCOc2ccc(NC(=O)C3CC3)cc2C1 | 674
CCC1CN(C(=O)N2CCC(C(=O)NCCN3CCN(CC)CC3)CC2)c2cc(C)ccc2O1 (centres undefined) | 616
COc1cccc2cc(C(=O)NCc3cccnc3)oc12 | 564
Cc1c(S(=O)(=O)CCNC(=O)NCc2ccc(F)cc2)c2ccccc2n1C | 737
COc1cccc(S(=O)(=O)N2CCC3(CC2)N(c2ccccc2)C(=O)CS3=O)c1 (centres undefined) | 737
Cc1cc(C)cc(Nc2c(-c3cccc(O)c3)nc3cnccn23)c1 | 763
O=C(CCCc1ccccc1)Nc1cccn2c(C3CCC3)nnc12 | 901
COc1ccc(Cl)cc1NC(=O)C1CCCN(C(=O)c2cc(-c3ccccn3)n[nH]2)C1 (centres undefined) | 771
COc1ccccc1CNC(=O)c1cn(C)nc1S(=O)(=O)N1CCC(C)CC1 | 951
